Reference: patent publication US20240317777A1, “NOVEL MACROCYCLIC AMINOPYRAZOLE COMPOUNDS AS CDK2 INHIBITORS” (Accutar Biotechnology Inc., priority 2023, published 2024)
Read-outs that look alike come from different tables or passages of the source.

Columns and labels:
[1] = tested on: CCNE1-normal SKOV3 cells; assay: Cell growth inhibition of CCNE1-normal SKOV3 cells (CellTiter-Glo); assay type: cell-based; settings: Homo sapiens, SK-OV-3, 144 h, 6 days
Summary of the method: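 Growth was measured by CellTiter-Glo luminescence after 6 days' compound exposure at 37 °C. Cells were plated one day before dosing at 1000 per well in medium with 10% FBS, and compounds were diluted from DMSO stocks.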

[2] = tested on: CCNE1-amplified OVCAR3 cells; assay: Cell growth inhibition of CCNE1-amplified OVCAR3 cells (CellTiter-Glo); assay type: cell-based; settings: Homo sapiens, OVCAR-3, 144 h, 6 days
Summary of the method: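 Growth read-out was CellTiter-Glo luminescence, taken after 10 min at room temperature at the end of a 6-day compound exposure at 37 °C. Compounds were diluted from DMSO stocks across various concentrations.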

[3] = target: CDK4-CYCLIN D1 (Homo sapiens, UniProt P11802); assay: CDK protein kinase inhibition by ADP-Glo assay, CDK4-CYCLIN D1; assay type: biochemical; settings: for IC50: ADP-Glo, 1000 μM ATP, read-out: CDK4-CYCLIND1, IC50; for CDK2 Fold selectivity, CDK4: CDK2 versus CDK4
Summary of the method: (§1)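 Luminescent ADP-Glo readout quantified ADP produced as peptide phosphorylation by each kinase/cyclin pair. Reactions ran at 22° C in HEPES pH 7.5 buffer (DTT, BSA, Triton X-100, orthovanadate, β-glycerophosphate, 5 mM Mg2+) with ATP at 1000 μM and 1% DMSO.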

[4] = target: CDK1-CYCLIN B (Homo sapiens, UniProt P06493); assay: CDK protein kinase inhibition by ADP-Glo assay, CDK1-CYCLIN B; assay type: biochemical; settings: for IC50: ADP-Glo, 1000 μM ATP, read-out: CDK1-CYCLINB, IC50; for CDK2 Fold selectivity, CDK1: CDK2 versus CDK1
Summary of the method: as §1

[5] = tested on: Phospho-Rb (Ser807/811) in OVCAR3 cells; assay: Phospho-Rb expression inhibition in OVCAR3 cells quantified by In Cell Western; assay type: cell-based; settings: Homo sapiens, OVCAR-3, 24 hours, read-out: OVCAR-3 pRb IC50
Summary of the method: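 In-cell western: after 24 h compound exposure at 37° C, fixed OVCAR3 cells co-stained for pRb Ser807/811 (800 nm channel) and total Rb (680 nm channel), imaged by LI-COR Odyssey.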

[6] = target: CDK2-CYCLIN E1 (Homo sapiens, UniProt P24941); assay: CDK protein kinase inhibition by ADP-Glo assay, CDK2-CYCLIN E1; assay type: biochemical; settings: ADP-Glo, 1000 μM ATP, read-out: CDK2-CYCLINE, IC50
Summary of the method: as §1

[7] = target: CDK6-CYCLIN D3 (Homo sapiens, UniProt Q00534); assay: CDK protein kinase inhibition by ADP-Glo assay, CDK6-CYCLIN D3; assay type: biochemical; settings: for IC50: ADP-Glo, 1000 μM ATP, read-out: CDK6-CYCLIND3, IC50; for CDK2 Fold selectivity, CDK6: CDK2 versus CDK6
Summary of the method: as §1

[8] = target: CDK9-CYCLIN T1 (Homo sapiens, UniProt P50750); assay: CDK protein kinase inhibition by ADP-Glo assay, CDK9-CYCLIN T1; assay type: biochemical; settings: for IC50: ADP-Glo, 1000 μM ATP, read-out: CDK9-CYCLINT1, IC50; for CDK2 Fold selectivity, CDK9: CDK2 versus CDK9
Summary of the method: as §1

Sequence of CDK4-CYCLIN D1 (P11802 whole entry): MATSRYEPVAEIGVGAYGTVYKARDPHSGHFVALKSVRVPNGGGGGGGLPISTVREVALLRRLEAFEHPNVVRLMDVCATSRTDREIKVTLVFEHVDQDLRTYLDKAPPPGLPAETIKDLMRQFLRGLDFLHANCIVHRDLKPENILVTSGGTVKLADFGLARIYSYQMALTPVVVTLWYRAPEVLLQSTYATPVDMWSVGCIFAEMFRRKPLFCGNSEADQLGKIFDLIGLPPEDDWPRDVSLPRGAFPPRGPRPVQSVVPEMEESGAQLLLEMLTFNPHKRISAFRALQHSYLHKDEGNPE
Sequence of CDK4-CYCLIN D1 (P24385 whole entry partner): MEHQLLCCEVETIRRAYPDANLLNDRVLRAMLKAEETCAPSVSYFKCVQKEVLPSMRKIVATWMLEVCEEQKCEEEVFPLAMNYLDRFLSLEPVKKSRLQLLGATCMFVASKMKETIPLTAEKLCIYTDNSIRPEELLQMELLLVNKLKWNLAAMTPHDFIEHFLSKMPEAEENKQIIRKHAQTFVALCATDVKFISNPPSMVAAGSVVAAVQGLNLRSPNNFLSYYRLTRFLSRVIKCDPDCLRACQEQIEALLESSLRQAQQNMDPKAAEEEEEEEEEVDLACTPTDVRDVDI
Sequence of CDK6-CYCLIN D3 (Q00534 whole entry): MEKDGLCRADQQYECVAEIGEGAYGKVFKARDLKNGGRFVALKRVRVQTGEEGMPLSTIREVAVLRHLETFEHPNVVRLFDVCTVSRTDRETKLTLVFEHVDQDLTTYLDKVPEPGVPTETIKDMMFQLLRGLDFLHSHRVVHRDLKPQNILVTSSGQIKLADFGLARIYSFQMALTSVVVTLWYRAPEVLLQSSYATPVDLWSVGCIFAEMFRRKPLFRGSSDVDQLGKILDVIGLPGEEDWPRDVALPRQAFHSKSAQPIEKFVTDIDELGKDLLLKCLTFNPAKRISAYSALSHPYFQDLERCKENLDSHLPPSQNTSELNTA
Sequence of CDK6-CYCLIN D3 (P30281 whole entry partner): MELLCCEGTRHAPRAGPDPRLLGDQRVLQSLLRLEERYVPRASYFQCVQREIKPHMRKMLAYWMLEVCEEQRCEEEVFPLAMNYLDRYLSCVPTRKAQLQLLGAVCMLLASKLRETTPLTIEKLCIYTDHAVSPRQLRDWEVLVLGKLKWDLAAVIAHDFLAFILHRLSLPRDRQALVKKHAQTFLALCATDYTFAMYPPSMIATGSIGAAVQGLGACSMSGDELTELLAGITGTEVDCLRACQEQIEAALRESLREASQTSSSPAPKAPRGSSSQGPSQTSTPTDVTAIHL
Sequence of CDK9-CYCLIN T1 (P50750 whole entry): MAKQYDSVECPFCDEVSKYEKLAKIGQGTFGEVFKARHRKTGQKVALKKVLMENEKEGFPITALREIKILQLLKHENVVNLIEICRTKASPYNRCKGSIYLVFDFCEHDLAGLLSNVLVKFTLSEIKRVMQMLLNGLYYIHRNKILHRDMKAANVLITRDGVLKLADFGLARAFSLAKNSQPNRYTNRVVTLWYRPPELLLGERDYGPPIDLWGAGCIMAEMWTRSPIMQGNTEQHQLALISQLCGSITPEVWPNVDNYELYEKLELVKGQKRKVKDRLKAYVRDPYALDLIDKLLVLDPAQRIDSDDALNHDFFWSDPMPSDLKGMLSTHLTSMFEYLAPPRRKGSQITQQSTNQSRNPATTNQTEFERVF
Sequence of CDK9-CYCLIN T1 (O60563 whole entry partner): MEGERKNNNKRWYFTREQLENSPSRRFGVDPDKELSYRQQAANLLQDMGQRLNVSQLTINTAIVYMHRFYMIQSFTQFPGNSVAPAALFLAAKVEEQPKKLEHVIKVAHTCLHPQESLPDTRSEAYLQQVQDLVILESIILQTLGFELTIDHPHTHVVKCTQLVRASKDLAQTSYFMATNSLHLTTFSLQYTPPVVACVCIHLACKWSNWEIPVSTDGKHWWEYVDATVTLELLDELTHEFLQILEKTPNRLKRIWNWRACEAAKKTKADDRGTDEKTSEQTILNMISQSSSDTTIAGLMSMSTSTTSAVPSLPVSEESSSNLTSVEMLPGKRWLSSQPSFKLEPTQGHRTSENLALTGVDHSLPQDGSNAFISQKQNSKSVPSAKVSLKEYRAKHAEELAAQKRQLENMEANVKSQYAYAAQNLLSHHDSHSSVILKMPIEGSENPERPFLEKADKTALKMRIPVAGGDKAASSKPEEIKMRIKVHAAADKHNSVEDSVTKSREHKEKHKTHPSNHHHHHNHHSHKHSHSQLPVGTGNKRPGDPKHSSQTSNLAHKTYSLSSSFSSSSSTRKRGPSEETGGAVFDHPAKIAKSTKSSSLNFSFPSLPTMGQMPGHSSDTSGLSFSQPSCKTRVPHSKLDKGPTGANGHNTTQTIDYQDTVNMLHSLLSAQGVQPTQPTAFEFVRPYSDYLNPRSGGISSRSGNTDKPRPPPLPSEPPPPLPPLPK
Sequence of CDK1-CYCLIN B (P06493 whole entry): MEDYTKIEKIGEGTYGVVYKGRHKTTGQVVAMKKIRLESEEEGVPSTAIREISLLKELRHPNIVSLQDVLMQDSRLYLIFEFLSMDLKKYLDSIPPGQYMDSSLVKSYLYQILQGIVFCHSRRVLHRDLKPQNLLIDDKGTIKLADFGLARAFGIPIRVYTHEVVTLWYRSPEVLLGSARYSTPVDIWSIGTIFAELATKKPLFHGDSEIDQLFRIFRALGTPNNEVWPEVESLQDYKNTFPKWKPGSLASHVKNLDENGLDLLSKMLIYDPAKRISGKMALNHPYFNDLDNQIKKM
Sequence of CDK1-CYCLIN B (P14635 whole entry partner): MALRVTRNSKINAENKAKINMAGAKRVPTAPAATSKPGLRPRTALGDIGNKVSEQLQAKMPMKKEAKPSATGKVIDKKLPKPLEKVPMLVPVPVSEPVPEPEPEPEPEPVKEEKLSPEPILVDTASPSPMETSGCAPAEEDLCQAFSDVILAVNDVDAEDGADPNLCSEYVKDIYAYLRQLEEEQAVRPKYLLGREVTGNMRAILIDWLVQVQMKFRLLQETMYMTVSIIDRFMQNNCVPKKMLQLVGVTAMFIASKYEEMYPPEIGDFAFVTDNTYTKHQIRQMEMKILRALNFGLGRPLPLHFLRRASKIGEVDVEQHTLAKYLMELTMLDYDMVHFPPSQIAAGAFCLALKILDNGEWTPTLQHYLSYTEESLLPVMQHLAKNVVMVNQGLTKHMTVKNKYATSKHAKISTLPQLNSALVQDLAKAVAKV

| IC50 [2] | IC50 ([3]; Table 19) | CDK2 Fold selectivity, CDK4 ([3]; Table 20) | IC50 ([4]; Table 19) | CDK2 Fold selectivity, CDK1 ([4]; Table 20) | IC50 [5] | IC50 ([6]; Table 19) | IC50 ([7]; Table 19) | CDK2 Fold selectivity, CDK6 ([7]; Table 20) | IC50 ([8]; Table 19) | CDK2 Fold selectivity, CDK9 ([8]; Table 20) | Compound | IC50 [1] | also measured |
| --- | --- | --- | --- | --- | --- | --- | --- | --- | --- | --- | --- | --- | --- |
| 10 to 50 nM | 50 to 100 nM | E (E, <20) | 100 to 500 nM | E (E, <20) | 10 to 50 nM | ≤ 10 nM | 100 to 500 nM | E (E, <20) | 100 to 500 nM | D (D, >20 and ≤50) | C[C@H]1CCCCc2cc(ccn2)Nc2cc(n[nH]2)[C@H]2CC[C@H](C2)OC(=O)N1 [Compound 114, (1^1S,1^3R,9S,Z)-9-methyl-2^1H-12-oxa-3,10-diaza-4(4,2)-pyridina-2(3,5)-pyrazola-1(1,3)-cyclopentanacyclododecaphan-11-one] | 250 to 1250 nM | – |
| 10 to 50 nM | 10 to 50 nM | E (E, <20) | 50 to 100 nM | E (E, <20) | 10 to 50 nM | 10 to 50 nM | 10 to 50 nM | E (E, <20) | 100 to 500 nM | E (E, <20) | C[C@@H]1CCCCc2cc(ccn2)Nc2cc(n[nH]2)[C@H]2CC[C@H](C2)OC(=O)N1 [Compound 115, (1^1S,1^3R,9R,Z)-9-methyl-2^1H-12-oxa-3,10-diaza-4(4,2)-pyridina-2(3,5)-pyrazola-1(1,3)-cyclopentanacyclododecaphan-11-one] | 250 to 1250 nM | – |
| 10 to 50 nM | – | – | – | – | 10 to 50 nM | – | – | – | – | – | O=C1NC2(CCCCc3cc(ccn3)Nc3cc(n[nH]3)[C@H]3CC[C@H](C3)O1)CC2 [Compound 116, (1′S,3′R,Z)-spiro[cyclopropane-1,9′-12-oxa-3,10-diaza-4(4,2)-pyridina-2(3,5)-pyrazola-1(1,3)-cyclopentanacyclododecaphan]-11′-one] | 250 to 1250 nM | IC50 ([3]; Table 17): 10 to 50 nM; CDK2 Fold selectivity, CDK4 ([3]; Table 18): E (E, <20); IC50 ([4]; Table 17): 50 to 100 nM; CDK2 Fold selectivity, CDK1 ([4]; Table 18): D (D, >20 and ≤50); IC50 ([6]; Table 17): ≤ 10 nM; IC50 ([7]; Table 17): 10 to 50 nM; CDK2 Fold selectivity, CDK6 ([7]; Table 18): E (E, <20); IC50 ([8]; Table 17): 50 to 100 nM; CDK2 Fold selectivity, CDK9 ([8]; Table 18): D (D, >20 and ≤50) |
| ≤ 2 nM | – | – | – | – | ≤ 2 nM | – | – | – | – | – | O=C1NC23CC(CCOc4cncc(c4)Nc4cc(n[nH]4)[C@H]4CC[C@H](C4)O1)(C2)C3 [Compound 117, (1^1S,1^3R,Z)-2^1H-5,11-dioxa-3,9-diaza-4(3,5)-pyridina-2(3,5)-pyrazola-8(1,3)-bicyclo[1.1.1]pentana-1(1,3)-cyclopentanacycloundecaphan-10-one] | 50 to 250 nM | IC50 ([3]; Table 11): 10 to 50 nM; CDK2 Fold selectivity, CDK4 ([3]; Table 12): E (E, <20); IC50 ([4]; Table 11): ≤ 10 nM; CDK2 Fold selectivity, CDK1 ([4]; Table 12): E (E, <20); IC50 ([6]; Table 11): ≤ 10 nM; IC50 ([7]; Table 11): 10 to 50 nM; CDK2 Fold selectivity, CDK6 ([7]; Table 12): E (E, <20); IC50 ([8]; Table 11): 10 to 50 nM; CDK2 Fold selectivity, CDK9 ([8]; Table 12): D (D, >20 and ≤50) |
